Among the data in ChEMBL document CHEMBL3045349, “A comparative study on the interference of two herbicides in wheat and italian ryegrass and on their antioxidant activities and detoxification rates” (J Agric Food Chem, 2011) are Drug uptake and Activity values, retold here.

The test system of data set [1] is Shoot. Briefly: Drug level in Lolium multiflorum (Italian ryegrass) shoots compound administered at rate of 14 mf/flat measured 144 hr post treatment by HPLC. The data set is classed as ADME.
Data set [2] has as its system Shoot. Briefly: Drug level in Triticum aestivum (wheat) shoots compound administered at rate of 14 mf/flat measured 144 hr post treatment by HPLC. In kind it is ADME.
For data set [3], the system named is Lolium multiflorum. Briefly: Effect on antioxidant enzyme system in Lolium multiflorum (Italian ryegrass) shoots assessed as glutathione S-transferase activity per mg protein compound administered at rate of 14 mf/flat measured 48 hr post treatment (reference value: 0.37 nmol/s per mg protein). In kind it is functional.
Data set [4] relates to Triticum aestivum. The experiment in a line: Effect on antioxidant enzyme system in Triticum aestivum (wheat) shoots assessed as catalase activity per mg protein compound administered at rate of 14 mf/flat measured 24 hr post treatment (reference value: 0.1 nmol/s per mg protein). In kind it is functional.
Data set [5] relates to Lolium multiflorum. The experiment in a line: Increase in glutathione S-transferase activity in Lolium multiflorum (Italian ryegrass) compound administered at rate of 14 mf/flat measured 24 hr post treatment. The data set is classed as functional.
Data set [6] relates to Triticum aestivum. The experiment in a line: Effect on antioxidant enzyme system in Triticum aestivum (wheat) shoots assessed as glutathione S-transferase activity per mg protein compound administered at rate of 14 mf/flat measured 48 hr post treatment (reference value: 2.3 nmol/s per mg protein). The data set is classed as functional.
The test system of data set [7] is Triticum aestivum. The experiment in a line: Reduction in glutathione S-transferase activity in Triticum aestivum (wheat) shoots compound administered at rate of 14 mf/flat measured 48 hr post treatment. The data set is classed as functional. Further details: scale not given: the % may be the effect or the level left.
For data set [8], the system named is Triticum aestivum. The experiment in a line: Increase in antioxidant enzyme system in Triticum aestivum (wheat) shoots assessed as increase in dehydroascorbate reductase activity compound administered at rate of 14 mf/flat measured 72 hr post treatment. In kind it is functional.
The test system of data set [9] is Lolium multiflorum. Briefly: Increase in MDA content in Lolium multiflorum (Italian ryegrass) shoots compound administered at rate of 14 mf/flat measured 24 hr post treatment. The data set is classed as functional.
Data set [10] deals with Triticum aestivum. The experiment in a line: Effect on MDA content in Triticum aestivum (wheat) shoots compound administered at rate of 14 mf/flat measured 72 hr post treatment (reference value: 0.050 uM/L). The data set is classed as functional.
Data set [11] deals with Triticum aestivum. The experiment in a line: Effect on antioxidant enzyme system in Triticum aestivum (wheat) shoots assessed as dehydroascorbate reductase activity per mg protein compound administered at rate of 14 mf/flat measured 24 hr post treatment (reference value: 4.6 nmol/s per mg protein). The data set is classed as functional.
Data set [12] concerns Lolium multiflorum. Briefly: Increase in antioxidant enzyme system in Lolium multiflorum (Italian ryegrass) shoots assessed as increase in dehydroascorbate reductase activity compound administered at rate of 14 mf/flat measured 48 hr post treatment. The data set is classed as functional.
Data set [13] relates to Lolium multiflorum. Briefly: Increase in antioxidant enzyme system in Lolium multiflorum (Italian ryegrass) shoots assessed as increase in ascorbate peroxidase activity compound administered at rate of 14 mf/flat measured 72 hr post treatment. The data set is classed as functional.
For data set [14], the system named is Triticum aestivum. Briefly: Effect on photosynthetic activity in Triticum aestivum (wheat) shoots assessed as dark respiration rate measured by CO2 production compound administered at rate of 14 mf/flat measured 72 hr post treatment (reference value: -1.07 umol/m2/s). In kind it is functional.
Data set [15] relates to Triticum aestivum. Briefly: Effect on photosynthetic activity in Triticum aestivum (wheat) shoots assessed as dark respiration rate measured by CO2 production compound administered at rate of 14 mf/flat measured 48 hr post treatment (reference value: -1.43 umol/m2/s). In kind it is functional.

Turning to `CCNc1nc(Cl)nc(NC(C)C)n1` [ATRAZINE], the Drug uptake is reported as 3.11 ppm with Shoot [1] and 0.35 ppm with Shoot [2]. Besides, the Activity in the data set with Lolium multiflorum [3] stood at 0.46 nmol/s/mg protein; in the data set on Triticum aestivum [4], 0.1 nmol/s/mg protein; with Lolium multiflorum [5] it was 35%; in the data set with Triticum aestivum [6] it was 1.7 nmol/s/mg protein; with Triticum aestivum [7], 26%; in the data set with Triticum aestivum [8], 21%. For the same compound, the Activity in the data set on Lolium multiflorum [9] is 25%; in the data set on Triticum aestivum [10], 0.057 µM; in the data set on Triticum aestivum [11] it was 5.5 nmol/s/mg protein.

Take `O=[N+]([O-])c1ccc(Oc2ccc(C(F)(F)F)cc2[N+](=O)[O-])cc1` [FLUORODIFEN]: the Drug uptake in the data set on Shoot [1] is 0.2 ppm. In addition, the Activity in the data set with Lolium multiflorum [12] was 19%; with Lolium multiflorum [3] it was 0.5 nmol/s/mg protein; with Triticum aestivum [4], 0.11 nmol/s/mg protein; in the data set on Lolium multiflorum [5] it was 97%; in the data set with Triticum aestivum [6], 2.2 nmol/s/mg protein; in the data set on Lolium multiflorum [13] it was 21%. In addition, the Activity in the data set with Triticum aestivum [14] was -0.94 micromol/m2/s; with Triticum aestivum [15], -0.77 micromol/m2/s; in the data set with Triticum aestivum [8], 45%; with Triticum aestivum [10], 0.049 µM; with Triticum aestivum [11], 5 nmol/s/mg protein.
